According to ChEMBL document CHEMBL1201862, “PubChem BioAssay data set” (2004):
Activity calls are given as the source filed them.

Assays:
[1] = target: T1, High affinity choline transporter 1 (Homo sapiens, UniProt Q9GZV3); experiment: CHT inhibitors, dose response, cell-based, 5-point CRC, membrane potential dye (AID 504840); format: functional
T1 sequence (Q9GZV3 whole entry): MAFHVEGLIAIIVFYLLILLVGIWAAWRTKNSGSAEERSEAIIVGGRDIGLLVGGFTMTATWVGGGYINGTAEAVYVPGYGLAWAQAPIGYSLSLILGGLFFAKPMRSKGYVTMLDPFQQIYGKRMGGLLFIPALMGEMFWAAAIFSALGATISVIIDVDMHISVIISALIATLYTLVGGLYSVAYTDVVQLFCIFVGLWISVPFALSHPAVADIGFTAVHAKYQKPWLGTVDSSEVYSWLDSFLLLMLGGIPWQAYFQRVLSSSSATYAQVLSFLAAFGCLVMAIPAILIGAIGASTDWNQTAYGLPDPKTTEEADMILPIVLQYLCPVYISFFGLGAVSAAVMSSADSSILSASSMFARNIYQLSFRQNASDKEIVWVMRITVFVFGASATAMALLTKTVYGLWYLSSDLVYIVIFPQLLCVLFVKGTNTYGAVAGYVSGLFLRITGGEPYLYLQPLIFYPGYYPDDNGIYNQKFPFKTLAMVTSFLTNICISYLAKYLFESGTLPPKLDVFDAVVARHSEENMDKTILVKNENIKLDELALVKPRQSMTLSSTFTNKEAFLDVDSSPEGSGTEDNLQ

H9c2 = experiment: cells; format: functional, cell-based; settings: Rattus norvegicus, H9c2, Myocardium;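 further: confirmatory concentration-response retest of ultra-high-throughput screening hits for modulation of myocardial damage; cell death induced by hydrogen peroxide oxidative stress; compound pretreatment for 60 min then peroxide exposure for 2 h; potency is for protecting the cells against peroxide damage rather than for killing them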
Ion channel NompC = Ion channel NompC (Danio rerio, UniProt Q7T1G6); experiment: Dose response cell-based high-throughput screening assay for agonists of the transient receptor potential channel N1 (TRPN1). [Related pubchem assays (depositor defined):AID1424, AID1448]; format: functional
Ion channel NompC, sequence (Q7T1G6 whole entry): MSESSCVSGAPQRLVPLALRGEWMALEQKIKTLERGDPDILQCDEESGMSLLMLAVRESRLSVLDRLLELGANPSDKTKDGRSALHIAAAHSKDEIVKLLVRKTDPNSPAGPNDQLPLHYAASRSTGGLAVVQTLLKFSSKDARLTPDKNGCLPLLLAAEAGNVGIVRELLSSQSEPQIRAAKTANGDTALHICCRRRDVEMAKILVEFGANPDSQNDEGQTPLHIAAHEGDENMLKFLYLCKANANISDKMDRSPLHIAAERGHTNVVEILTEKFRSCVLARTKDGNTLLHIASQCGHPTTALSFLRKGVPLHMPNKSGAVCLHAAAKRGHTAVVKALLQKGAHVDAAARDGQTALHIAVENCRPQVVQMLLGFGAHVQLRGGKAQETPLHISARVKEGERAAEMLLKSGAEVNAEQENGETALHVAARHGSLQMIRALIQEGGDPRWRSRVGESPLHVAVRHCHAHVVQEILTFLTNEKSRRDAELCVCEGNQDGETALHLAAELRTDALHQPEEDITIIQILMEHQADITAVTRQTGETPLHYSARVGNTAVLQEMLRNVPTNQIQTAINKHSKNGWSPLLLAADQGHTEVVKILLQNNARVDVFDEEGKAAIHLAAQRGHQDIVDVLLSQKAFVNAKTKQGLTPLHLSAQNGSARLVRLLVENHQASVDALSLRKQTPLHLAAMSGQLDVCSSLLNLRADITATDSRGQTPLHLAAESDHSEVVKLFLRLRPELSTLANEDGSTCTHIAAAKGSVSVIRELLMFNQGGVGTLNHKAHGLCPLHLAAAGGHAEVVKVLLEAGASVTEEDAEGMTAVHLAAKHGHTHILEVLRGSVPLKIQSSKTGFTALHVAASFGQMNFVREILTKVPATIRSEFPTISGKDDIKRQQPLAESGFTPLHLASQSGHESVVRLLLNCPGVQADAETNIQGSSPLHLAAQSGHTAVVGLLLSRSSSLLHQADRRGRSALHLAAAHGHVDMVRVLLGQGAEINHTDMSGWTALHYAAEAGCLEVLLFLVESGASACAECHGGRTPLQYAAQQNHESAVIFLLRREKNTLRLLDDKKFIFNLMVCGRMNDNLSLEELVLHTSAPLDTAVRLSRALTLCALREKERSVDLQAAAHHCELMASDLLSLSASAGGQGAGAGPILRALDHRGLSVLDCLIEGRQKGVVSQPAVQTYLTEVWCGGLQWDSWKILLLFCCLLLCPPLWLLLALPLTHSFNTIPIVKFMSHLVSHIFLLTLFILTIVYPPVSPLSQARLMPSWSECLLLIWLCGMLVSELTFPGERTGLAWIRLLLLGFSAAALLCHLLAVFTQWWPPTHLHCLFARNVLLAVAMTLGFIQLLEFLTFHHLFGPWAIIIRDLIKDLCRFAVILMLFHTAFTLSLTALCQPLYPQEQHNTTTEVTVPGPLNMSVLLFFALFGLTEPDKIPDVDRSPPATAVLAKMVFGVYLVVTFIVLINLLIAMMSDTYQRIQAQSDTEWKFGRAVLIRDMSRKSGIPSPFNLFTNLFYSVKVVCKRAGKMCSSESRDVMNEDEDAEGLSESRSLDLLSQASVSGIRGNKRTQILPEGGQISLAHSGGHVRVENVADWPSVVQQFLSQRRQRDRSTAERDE

Mucolipin-3 = target: T2, Mucolipin-3 (Homo sapiens, UniProt Q8TDD5); experiment: Fluorescence counterscreen assay for […] agonists: dose response cell-based high-throughput screening assay to identify agonists of the transient receptor potential channel ML3 (TRPML3). [Related pubchem assays: 1424, 1448 ]; format: functional
T2 sequence (Q8TDD5 whole entry): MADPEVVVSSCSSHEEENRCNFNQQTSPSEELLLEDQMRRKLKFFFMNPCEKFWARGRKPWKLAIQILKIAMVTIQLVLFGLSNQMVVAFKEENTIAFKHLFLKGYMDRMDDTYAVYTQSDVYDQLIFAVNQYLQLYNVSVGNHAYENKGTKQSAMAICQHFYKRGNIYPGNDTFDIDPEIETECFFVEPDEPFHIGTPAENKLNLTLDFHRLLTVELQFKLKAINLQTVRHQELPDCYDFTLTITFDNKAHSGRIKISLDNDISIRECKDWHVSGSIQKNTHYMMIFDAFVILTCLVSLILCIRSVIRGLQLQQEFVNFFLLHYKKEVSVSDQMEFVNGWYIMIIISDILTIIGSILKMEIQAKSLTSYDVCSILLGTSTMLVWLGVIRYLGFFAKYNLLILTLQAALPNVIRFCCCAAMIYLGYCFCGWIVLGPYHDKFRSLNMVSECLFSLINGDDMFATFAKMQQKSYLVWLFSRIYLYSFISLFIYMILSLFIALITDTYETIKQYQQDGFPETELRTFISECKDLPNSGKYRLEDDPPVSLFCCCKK

HEK293 [2] = experiment: NOD2 signaling inhibitors in MDP-stimulated cells, cell-based, uHTS, luminescence (AID 2001); format: functional; settings: Homo sapiens
[3] = target: T3, Corticotropin-releasing factor receptor 2/Corticotropin-releasing factor-binding protein (Homo sapiens, UniProt P24387+Q13324); experiment: Dose Response confirmation of uHTS hits for small molecule antagonists of the CRF-binding protein and CRF-R2 receptor complex.; format: functional; settings: read-out: IC50_Mean
T3 sequence (Q13324 whole entry): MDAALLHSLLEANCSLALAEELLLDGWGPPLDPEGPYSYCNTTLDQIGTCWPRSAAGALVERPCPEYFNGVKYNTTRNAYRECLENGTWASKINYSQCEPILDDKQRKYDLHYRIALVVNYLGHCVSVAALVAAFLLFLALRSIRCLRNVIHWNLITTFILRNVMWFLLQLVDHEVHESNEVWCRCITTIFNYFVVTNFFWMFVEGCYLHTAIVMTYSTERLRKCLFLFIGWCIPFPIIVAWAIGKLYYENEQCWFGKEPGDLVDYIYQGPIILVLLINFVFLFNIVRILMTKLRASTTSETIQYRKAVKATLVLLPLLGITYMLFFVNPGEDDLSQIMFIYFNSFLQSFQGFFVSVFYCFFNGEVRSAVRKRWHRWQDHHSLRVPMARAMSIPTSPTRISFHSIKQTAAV
T3 sequence (P24387 whole entry): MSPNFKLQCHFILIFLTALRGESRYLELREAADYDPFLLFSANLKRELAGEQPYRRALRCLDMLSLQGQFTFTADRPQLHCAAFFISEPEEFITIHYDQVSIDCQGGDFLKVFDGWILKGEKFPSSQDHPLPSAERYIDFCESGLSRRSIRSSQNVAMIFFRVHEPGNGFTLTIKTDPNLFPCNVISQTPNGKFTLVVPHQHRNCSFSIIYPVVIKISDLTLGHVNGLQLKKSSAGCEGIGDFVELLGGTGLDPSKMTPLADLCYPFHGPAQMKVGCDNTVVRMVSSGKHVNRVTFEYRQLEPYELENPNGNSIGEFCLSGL

HEK293 [4] = experiment: cells; format: functional, cell-based; settings: Homo sapiens
HEK293 [5] = experiment: cells; format: functional, cell-based; settings: Homo sapiens; remark: listed apart in the source
[6] = CRF-BP/CRF-R2 complex antagonists, dose response, cell-based, uHTS hits, 384-well (AID 651639); format: functional, Homo sapiens; settings: read-out: IC50_Mean
HEK293 [7] = experiment: NOD1 signaling inhibitors, primary screen, cell-based, luminescence, uHTS (AID 1578); format: functional; settings: Homo sapiens
[8] = target: Nucleotide-binding oligomerization domain-containing protein 2 (Homo sapiens, UniProt Q9HC29); experiment: NOD2 signaling inhibitors, cell-based, luminescence, uHTS, HEK293 (AID 1566); format: functional
Nucleotide-binding oligomerization domain-containing protein 2, sequence (Q9HC29 whole entry, the tested form may be a part): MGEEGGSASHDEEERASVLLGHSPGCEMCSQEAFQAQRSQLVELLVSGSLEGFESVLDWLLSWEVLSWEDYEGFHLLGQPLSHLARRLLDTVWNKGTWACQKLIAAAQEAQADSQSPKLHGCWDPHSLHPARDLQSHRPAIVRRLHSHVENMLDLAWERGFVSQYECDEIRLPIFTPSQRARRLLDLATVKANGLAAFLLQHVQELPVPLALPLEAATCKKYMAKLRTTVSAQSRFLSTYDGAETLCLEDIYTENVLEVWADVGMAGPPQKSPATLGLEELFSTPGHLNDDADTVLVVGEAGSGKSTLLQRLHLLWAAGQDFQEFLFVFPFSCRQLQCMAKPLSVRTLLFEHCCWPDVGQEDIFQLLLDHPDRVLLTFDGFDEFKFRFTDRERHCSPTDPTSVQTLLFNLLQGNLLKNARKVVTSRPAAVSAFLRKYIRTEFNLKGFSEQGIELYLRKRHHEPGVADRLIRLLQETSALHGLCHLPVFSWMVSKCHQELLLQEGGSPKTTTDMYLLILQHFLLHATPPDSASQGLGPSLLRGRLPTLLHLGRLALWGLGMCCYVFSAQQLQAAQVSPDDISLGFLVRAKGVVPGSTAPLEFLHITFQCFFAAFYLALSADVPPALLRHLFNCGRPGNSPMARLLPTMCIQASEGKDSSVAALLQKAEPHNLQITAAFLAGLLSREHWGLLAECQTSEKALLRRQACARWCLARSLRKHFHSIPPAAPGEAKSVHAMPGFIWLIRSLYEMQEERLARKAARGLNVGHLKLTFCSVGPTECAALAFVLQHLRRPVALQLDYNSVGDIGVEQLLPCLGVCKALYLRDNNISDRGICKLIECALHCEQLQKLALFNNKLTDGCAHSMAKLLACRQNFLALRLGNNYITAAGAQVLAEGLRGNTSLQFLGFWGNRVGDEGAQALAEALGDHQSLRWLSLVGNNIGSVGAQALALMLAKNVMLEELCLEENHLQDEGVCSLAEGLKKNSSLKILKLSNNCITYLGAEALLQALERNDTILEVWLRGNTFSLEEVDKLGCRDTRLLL

HEK293 [9] = experiment: cells; format: functional, cell-based; settings: Homo sapiens; remark: listed apart in the source
[10] = target: T3, Corticotropin-releasing factor receptor 2/Corticotropin-releasing factor-binding protein; experiment: activators of CRF receptor 2 with binding protein – uHTS hits, confirmation (AID 602473); format: functional; settings: read-out: EC50_Mean
Bcl-2-related protein A1 = target: T4, Bcl-2-related protein A1 (Mus musculus, UniProt Q07440); format: functional;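 further: confirmatory dose–response counterscreen on Bfl-1, used to check hits from a UBC13 polyubiquitin inhibitor campaign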
T4 sequence (Q07440 whole entry): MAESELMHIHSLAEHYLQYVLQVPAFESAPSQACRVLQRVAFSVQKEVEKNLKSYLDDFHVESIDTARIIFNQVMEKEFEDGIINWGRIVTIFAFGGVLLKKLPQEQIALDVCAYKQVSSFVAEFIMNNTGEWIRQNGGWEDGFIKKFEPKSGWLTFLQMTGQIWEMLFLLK

[11] = target: T5, Ubiquitin-conjugating enzyme E2 N (Homo sapiens, UniProt P61088); format: functional
T5 sequence (P61088 whole entry): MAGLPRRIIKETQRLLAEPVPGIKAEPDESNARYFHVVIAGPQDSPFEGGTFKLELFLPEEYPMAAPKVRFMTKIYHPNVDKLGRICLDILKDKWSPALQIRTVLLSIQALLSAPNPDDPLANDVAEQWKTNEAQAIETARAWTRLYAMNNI

[12] = target: T5, Ubiquitin-conjugating enzyme E2 N; format: functional; remark: listed apart in the source
[13] = target: T6, Histone-lysine N-methyltransferase NSD2 (Homo sapiens, UniProt O96028); format: biochemical
T6 sequence (O96028 whole entry): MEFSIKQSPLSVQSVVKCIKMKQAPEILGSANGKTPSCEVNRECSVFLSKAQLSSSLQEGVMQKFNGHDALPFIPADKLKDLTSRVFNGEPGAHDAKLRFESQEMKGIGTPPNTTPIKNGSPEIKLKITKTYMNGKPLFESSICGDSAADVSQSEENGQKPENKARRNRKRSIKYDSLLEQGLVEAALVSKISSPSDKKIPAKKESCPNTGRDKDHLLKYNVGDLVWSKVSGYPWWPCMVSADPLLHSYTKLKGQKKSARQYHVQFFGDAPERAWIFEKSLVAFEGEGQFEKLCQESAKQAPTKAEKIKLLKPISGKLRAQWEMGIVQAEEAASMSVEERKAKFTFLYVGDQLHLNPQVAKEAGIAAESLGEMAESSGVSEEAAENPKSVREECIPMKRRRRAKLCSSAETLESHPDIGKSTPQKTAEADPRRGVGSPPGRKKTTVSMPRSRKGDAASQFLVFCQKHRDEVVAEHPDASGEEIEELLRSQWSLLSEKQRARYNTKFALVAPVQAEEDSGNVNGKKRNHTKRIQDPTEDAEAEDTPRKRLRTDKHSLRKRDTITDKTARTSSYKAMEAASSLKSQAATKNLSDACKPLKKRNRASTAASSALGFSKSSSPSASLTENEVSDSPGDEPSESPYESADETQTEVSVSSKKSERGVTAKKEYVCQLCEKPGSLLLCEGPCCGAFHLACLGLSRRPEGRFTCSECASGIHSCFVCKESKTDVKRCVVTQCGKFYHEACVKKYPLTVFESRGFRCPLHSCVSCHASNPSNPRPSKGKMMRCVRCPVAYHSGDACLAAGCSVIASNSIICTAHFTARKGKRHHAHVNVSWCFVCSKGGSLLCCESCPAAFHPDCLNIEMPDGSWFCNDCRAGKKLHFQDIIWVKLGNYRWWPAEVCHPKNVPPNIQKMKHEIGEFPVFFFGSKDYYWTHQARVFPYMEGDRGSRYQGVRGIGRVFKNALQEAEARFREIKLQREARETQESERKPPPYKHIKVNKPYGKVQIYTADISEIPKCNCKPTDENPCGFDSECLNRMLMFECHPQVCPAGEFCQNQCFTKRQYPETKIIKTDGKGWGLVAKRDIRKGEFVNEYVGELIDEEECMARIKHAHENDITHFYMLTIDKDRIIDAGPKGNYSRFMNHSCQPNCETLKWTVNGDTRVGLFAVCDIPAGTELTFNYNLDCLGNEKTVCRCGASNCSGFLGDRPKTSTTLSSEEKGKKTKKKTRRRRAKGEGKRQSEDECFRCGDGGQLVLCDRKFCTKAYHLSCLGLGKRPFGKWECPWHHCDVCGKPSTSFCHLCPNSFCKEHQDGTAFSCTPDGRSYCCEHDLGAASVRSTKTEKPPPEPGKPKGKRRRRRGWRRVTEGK

[14] = target: G-protein coupled receptor 55 (Homo sapiens, UniProt Q9Y2T6); experiment: GPR55 antagonists blocking LPI-driven arrestin recruitment, primary screen, imaging, U2OS, beta-arrestin-GFP, LPI agonist (AID 2013); format: functional;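 further: antagonist potency measured as reduced agonist-driven arrestin aggregation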
G-protein coupled receptor 55, sequence (Q9Y2T6 whole entry): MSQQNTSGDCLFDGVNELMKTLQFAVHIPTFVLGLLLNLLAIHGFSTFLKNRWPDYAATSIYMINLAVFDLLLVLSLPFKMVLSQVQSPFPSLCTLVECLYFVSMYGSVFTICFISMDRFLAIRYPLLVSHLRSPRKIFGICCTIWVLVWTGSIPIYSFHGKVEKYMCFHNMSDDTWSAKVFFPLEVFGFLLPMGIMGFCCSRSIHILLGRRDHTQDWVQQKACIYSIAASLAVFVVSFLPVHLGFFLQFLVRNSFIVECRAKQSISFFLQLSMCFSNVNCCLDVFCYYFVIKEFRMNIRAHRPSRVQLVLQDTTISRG

O=C(NC1CCCCC1)C(c1ccc2ncccc2c1)N(Cc1ccccc1)C(=O)c1ccc2c(c1)OCCO2 (stereo not drawn)
IC50 [1]: 10 µM (active)
IC50 (H9c2): > 79 µM (inactive)

COC(=O)c1ccc(NC(=O)c2ccccc2NS(=O)(=O)c2ccccc2)cc1
EC50 (Ion channel NompC): > 29.9 µM (inactive)
EC50 (Mucolipin-3): > 29.9 µM (not active)
IC50 (HEK293 [2]): 7.55 µM (active)
IC50 [3]: 0.506 µM (active)
IC50 (HEK293 [4]): > 20 µM (inactive)
IC50 (HEK293 [5]): > 20 µM (inactive)
IC50 [6]: > 20 µM (inactive)
EC50 (HEK293 [7]): 2.34 µM (active)
EC50 [8]: 6.09 µM (active)
IC50 (HEK293 [9]): 12.9 µM (active)
EC50 [10]: > 53 µM (inactive)

CNCc1cc(Br)c(OCC(=O)Nc2ccccc2OC)c(OC)c1
IC50 (Bcl-2-related protein A1): > 20 µM (inactive)
IC50 [11]: 8.66 µM (active)
IC50 [12]: 9.34 µM (active)
AC50 [13]: 14.7 µM (active)

NC(=O)c1cc(-c2ccccc2)nc(N2CCOCC2)n1
IC50 [14]: 7.26 µM (active)
